In one data set the target is T1, Adenosine receptor A1 (Homo sapiens, UniProt P30542).
T1 sequence (P30542 whole entry): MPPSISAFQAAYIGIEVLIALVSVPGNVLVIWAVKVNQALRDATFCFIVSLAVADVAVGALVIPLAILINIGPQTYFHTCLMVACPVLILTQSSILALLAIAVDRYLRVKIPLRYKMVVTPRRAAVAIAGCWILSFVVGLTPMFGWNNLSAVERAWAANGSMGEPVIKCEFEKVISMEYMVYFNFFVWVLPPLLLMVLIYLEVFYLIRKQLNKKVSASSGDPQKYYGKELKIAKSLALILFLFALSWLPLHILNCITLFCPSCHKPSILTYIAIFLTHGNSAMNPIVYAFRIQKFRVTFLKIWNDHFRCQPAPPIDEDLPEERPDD
In words: Antagonist activity at human adenosine A1 receptor expressed in CHOK1 cells assessed as inhibition of R-PIA/forskolin-induced cAMP accumulation incubated for 15 mins prior to R-PIA/forskolin challenge measured after 5.5 to 6 hrs by beta-galactosidase reporter gene assay. The class given is functional, cell-based, CHO-K1. Background: Cyclic AMP is a second messenger, typically raised through Gs and lowered through Gi signalling.

Data set [1] can be described thus: Ratio of drug level in brain to plasma in rat at 2 mg/kg, iv and 10 mg/kg, po measured at 1 hr. It is filed as ADME, organism-based. To be noted: read-out: BPR.
Data set [2] is described as follows: Oral bioavailability in rat at 10 mg/kg. It is filed as ADME, organism-based. To be noted: in vivo.
The nature of data set [3]: Cmax in rat at 10 mg/kg, po. To be noted: in vivo. The class given is ADME, organism-based. Also on record: dose 10 mg/kg, route oral.
Data set [4] can be described thus: Half life in rat at 10 mg/kg, po. The class given is ADME, organism-based. Also on record: dose 10 mg/kg, route oral. The settings on record: in vivo.
Data set [5] in a line: Clearance in rat at 2 mg/kg, iv and 10 mg/kg, po. The settings on record: in vivo. It is filed as ADME, organism-based.
Data set [6] can be described thus: Oral bioavailability in mouse at 10 mg/kg. The class given is ADME, organism-based. To be noted: in vivo.
Data set [7] can be described thus: Cmax in mouse at 10 mg/kg, po. The settings on record: in vivo. The class given is ADME, organism-based. Also on record: dose 10 mg/kg, route oral.
A short description of data set [8]: Half life in mouse at 10 mg/kg, po. Also on record: dose 10 mg/kg, route oral. It is filed as ADME, organism-based. To be noted: in vivo.
Data set [9] is described as follows: Clearance in mouse at 5 mg/kg, iv and 10 mg/kg, po. To be noted: in vivo. The class given is ADME, organism-based.
Data set [10] has as its system Mus musculus. In words: Antiparkinsonian activity in mouse assessed as reversal of haloperidol-induced catalepsy at 10 mg/kg, po after 2 to 4 hrs. The class given is functional, organism-based. Also on record: dose 10 mg/kg.
Data set [11] concerns Mus musculus. In words: Antiparkinsonian activity in po dosed mouse assessed as reversal of haloperidol-induced catalepsy after 1 hr. The class given is functional.
In data set [12] the test system is Mus musculus. In words: Antiparkinsonian activity in mouse assessed as reversal of haloperidol-induced catalepsy at 10 mg/kg, po after 1 hr. The class given is functional, organism-based. Also on record: dose 10 mg/kg.
The target in a further data set is Adenosine receptor A2a (Homo sapiens, UniProt P29274). In words: Antagonist activity at human adenosine A2a receptor expressed in CHOK1 cells assessed as inhibition of NECA/forskolin-induced cAMP accumulation incubated for 15 mins prior to NECA/forskolin challenge measured after 5.5 to 6 hrs by beta-galactosidase reporter gene assay. It is filed as functional, cell-based, CHO-K1.

For data set [13], the system named is Mus musculus. In words: Antiparkinsonian activity in mouse assessed as reversal of haloperidol-induced catalepsy at 3 mg/kg, po after 1 hr. The class given is functional, organism-based. Also on record: dose 3 mg/kg.

Active and inactive are the calls of the source. No cut-off for these calls is given here.

Sequence of Adenosine receptor A2a (P29274 whole entry): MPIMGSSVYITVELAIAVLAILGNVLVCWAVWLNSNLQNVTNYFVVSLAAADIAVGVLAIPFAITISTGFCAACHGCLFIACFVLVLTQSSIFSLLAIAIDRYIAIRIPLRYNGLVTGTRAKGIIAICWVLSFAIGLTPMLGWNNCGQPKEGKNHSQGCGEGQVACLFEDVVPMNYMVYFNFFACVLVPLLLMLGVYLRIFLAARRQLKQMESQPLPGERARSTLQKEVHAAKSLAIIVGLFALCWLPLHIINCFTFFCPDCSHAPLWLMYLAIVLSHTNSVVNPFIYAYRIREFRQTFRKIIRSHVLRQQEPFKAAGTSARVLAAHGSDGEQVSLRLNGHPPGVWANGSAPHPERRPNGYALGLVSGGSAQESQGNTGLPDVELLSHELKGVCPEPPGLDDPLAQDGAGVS

Turning to `C=C(c1ccccc1)c1cc2c(N)nc(-c3cccc(C#N)c3)nc2s1`, the Ki – broadly, a dissociation constant, usually derived from enzyme kinetics or from competition with a known ligand – on Adenosine receptor A1 is greater than 1000 nM.
Same read-out and setting: to `N#Cc1cccc(-c2nc(N)c3cc(C4(c5ccccc5)CC4)sc3n2)c1` belongs greater than 610 nM.
As for `Cc1ccc(-c2nc(N)c3cc(Cc4ccccc4)sc3n2)o1`, the Kp at 1 h in data set [1] was 1.2. Also, the bioavailability (in general, the share of a dose that reaches the circulation, judged against a reference dose that is usually intravenous) in [2] came out at 83%; in data set [6], 5%. Further, the Cmax (in general, the highest concentration seen after dosing) in [3] is 2.98 µM; in data set [7], 5.01 µM. Further, the half-life (in general, how long it takes for the measured level to halve) in [4] was 42 min; in [8], 18 min. The clearance in [5] was 65 mL/min/kg; in [9], 69 mL/min/kg. For the same molecule, in the data set on Mus musculus [10], the result was inactive. For the same molecule, the ED50 – broadly, the dose that gives a 50% effect, or the effect in half of the subjects – in the data set with Mus musculus [11] was 2.2 mg/kg. For the same molecule, the outcome with Mus musculus [12] was Active. Also, the Ki at Adenosine receptor A1 is 298 nM.
Consider `Nc1nc(-c2ccncc2)nc2sc(Cc3ccccc3)cc12`, for which the Ki at Adenosine receptor A1 stood at 812 nM; at Adenosine receptor A2a, 67.3 nM.
As for `Nc1nc(-c2ncccn2)nc2sc(Cc3ccccc3)cc12`, on Adenosine receptor A2a, the Ki turned out to be 17.1 nM.
As for `Cc1ccc(-c2nc(N)c3cc(C(C)c4ccccc4)sc3n2)o1` (configuration not stated), the Ki stood at 439 nM on Adenosine receptor A1 and 40.1 nM at Adenosine receptor A2a.
On the same counts, the results for `N#Cc1cncc(-c2nc(N)c3cc(Cc4ccccc4)sc3n2)c1` are 1160 nM and greater than 168 nM.
On the same counts, the results for `Nc1nc(C2CCCO2)nc2sc(Cc3ccccc3)cc12` (configuration not stated) are 2950 nM and 683 nM.
On to `Nc1nc(-c2cnco2)nc2sc(Cc3ccccc3)cc12`, for which the result with Mus musculus [13] was inactive. The results for the Ki at Adenosine receptor A1 and at Adenosine receptor A2a were 106 nM and 9 nM, respectively.
As for `Nc1nc(-c2ccccc2)nc2sccc12`, the Ki on Adenosine receptor A2a is 500 nM.
With `Nc1nc(-c2cccc(Cl)n2)nc2sc(Cc3ccccc3)cc12`, the results for the Ki on Adenosine receptor A1 and at Adenosine receptor A2a were greater than 1000 nM and 173 nM, respectively.
On the same counts, the results for `Cc1ccc(-c2nc(N)c3ccsc3n2)o1` are 493 nM and 109 nM.
Consider `Nc1nc(-c2ccccc2)nc2sc(CCc3ccccc3)cc12`, for which the Ki at Adenosine receptor A2a is greater than 1000 nM.
For the molecule `Cc1ccc(-c2nc(N)c3cc(Cc4ccccc4Cl)sc3n2)o1`, the figures for the Ki at Adenosine receptor A1 and on Adenosine receptor A2a were 26.1 nM and 2.9 nM, respectively.
On the same counts, the results for `Cc1ccc(-c2nc(N)c3cc(Cc4ccccc4F)sc3n2)o1` are less than 16 nM and 3.7 nM.
On the same counts, the results for `Cc1csc(-c2nc(N)c3cc(Cc4ccccc4Cl)sc3n2)n1` are 49.6 nM and 6.9 nM.
Turning to `COc1ccccc1Cc1cc2c(N)nc(-c3ccc(C)o3)nc2s1`, in the data set with Mus musculus [11], the ED50 came to 0.8 mg/kg. Also, the outcome in the data set on Mus musculus [12] was Active. For the same molecule, the Ki was 122 nM on Adenosine receptor A1 and 11 nM on Adenosine receptor A2a.
As to `Cc1ccc(-c2nc(N)c3cc(CCc4ccccc4)sc3n2)o1`, on Adenosine receptor A2a, the Ki was found to be 203 nM.
On to `Cc1csc(-c2nc(N)c3cc(Cc4ccccc4)sc3n2)n1`, for which, in the data set with Mus musculus [12], the result was inactive.
Regarding `CC(C)c1ccc(-c2nc(N)c3cc(Cc4ccccc4)sc3n2)o1`, the Ki on Adenosine receptor A1 turned out to be 283 nM; on Adenosine receptor A2a it was 168 nM.
On the same counts, the results for `N#Cc1cccc(-c2nc(N)c3cc(Cc4ccccc4Cl)sc3n2)c1` are 24.8 nM and 1.4 nM.
As for `Nc1nc(-c2cccc(C(F)(F)F)c2)nc2sc(Cc3ccccc3)cc12`, the Ki at Adenosine receptor A1 is greater than 1000 nM.
On to `N#Cc1cccc(-c2nc(N)c3cc(Cc4ccccc4)sc3n2)n1`, for which the results for the Ki at Adenosine receptor A1 and at Adenosine receptor A2a were greater than 1000 nM and 26 nM, respectively.
On the same counts, the results for `Cc1ccc(-c2nc(N)c3cc(-c4ccccc4)sc3n2)o1` are 520 nM and 67.3 nM.
On the same counts, the results for `Cc1csc(-c2nc(N)c3cc(Cc4ccccc4F)sc3n2)n1` are 28.6 nM and 9.7 nM.
On the same counts, the results for `N#Cc1cccc(-c2nc(N)c3cc(Cc4ccccc4F)sc3n2)c1` are less than 16 nM and 7.3 nM.
Take `Nc1nc(-c2ccccn2)nc2sc(Cc3ccccc3)cc12`: the results for the Ki at Adenosine receptor A1 and on Adenosine receptor A2a were 3710 nM and 594 nM, respectively.
As to `N#Cc1cccc(-c2nc(N)c3cc(Cc4ccccc4)sc3n2)c1`, the ED50 in the data set with Mus musculus [11] was less than 1 mg/kg. Further, the outcome in the data set with Mus musculus [13] was Active. Moreover, the Ki on Adenosine receptor A1 turned out to be 222 nM; on Adenosine receptor A2a, 11.4 nM.
For `Nc1nc(-c2ccccc2)nc2sc(Cc3ccccc3)cc12`, the Ki at Adenosine receptor A1 came to 151 nM; on Adenosine receptor A2a, 29.8 nM.
Turning to `C=C(c1ccccc1)c1cc2c(N)nc(-c3nc(C)cs3)nc2s1`, the Ki at Adenosine receptor A1 is greater than 594 nM.
The same measure, in the same setting: to `Cc1csc(-c2nc(N)c3cc(C4(c5ccccc5)CC4)sc3n2)n1` belongs greater than 610 nM.
In the case of `Nc1nc(-c2ncco2)nc2sc(Cc3ccccc3)cc12`, the outcome in the data set on Mus musculus [13] was inactive. In addition, the Ki came to 310 nM on Adenosine receptor A1 and 4.7 nM on Adenosine receptor A2a.
Regarding `CC(c1ccccc1)c1cc2c(N)nc(-c3cccc(C#N)c3)nc2s1` (configuration not stated), the Ki on Adenosine receptor A1 turned out to be 1770 nM; at Adenosine receptor A2a it was 340 nM.
On the same counts, the results for `Cc1csc(-c2nc(N)c3cc(C(C)c4ccccc4)sc3n2)n1` (configuration not stated) are 1420 nM and 100 nM.
On the same counts, the results for `Nc1nc(-c2ccccc2)nc2sc(-c3ccccc3)cc12` are 237 nM and 207 nM.

These data come from ChEMBL document CHEMBL2375358, “Substituted thieno[2,3-d]pyrimidines as adenosine A2A receptor antagonists” (Bioorg Med Chem Lett, 2013).
